# Marks after values point to notes of the source that are not given here.
# How the values were obtained:
# [1] = test system: male mice; assay: Test of sexual ethology: bestriding time and mating frequency of male mice with estral female mice; format: in vivo, Kunming mice
# Procedure: Kunming male mice (age 10 weeks, weight body 32-36 g), Kunming female mice (age 10 weeks, weight body 30-34 g), as purchased from Laboratory Animal Center of Chinese Academy of Medical Sciences (with the number of certificate SCXK (Jing) 2005-0004), were placed in a clean grade animal house alternately in light and in darkness (12 h:12 h), while taking water and food freely. The test started after the mice had adapted to the environment in the animal house for 5 days. During the period of adapting to the environment, male mice and female mice were isolated from each other.
# In order to correctly reflect the change of male mice in sexual function, we prepared estral female mice by ectomizing their ovaries and inducing them by application of external hormone. After anesthetized with chloral hydrate, female mice were subjected to the steps of ectomizing bilateral ovaries by dorsal approach, ligating uterine tube residue end, and suturing skin, followed by recuperating for one week. The induction by application of hormone was conducted by reference to the literature (Masayoshi Nomura, et al, Physiology & Behavior 91 (2007) 223-228), comprising the steps of subcutaneously injecting estradiol benzoate (30 μg per mouse, is) at 48 h prior to use, and subcutaneously injecting progesterone (500 μg per mouse, is) at 4 h prior to use, to thereby obtain estral female mice.
# Estral female mice were put in a ratio of 2:1 to male mice inside a mating box in which male mice were placed. They were trained for consecutive 5 days, 12 min each day. When the mating reaction of male mice became stable, the mice were grouped with the consideration that the bestriding time in each group of mice was substantially the same, while discarding the mice that had relatively weak reaction and no reaction.
# In darkness, ethological test was carried out in the rearing cage of male mice. Estral female mice and male mice were kept in a ratio of 2:1 inside the same box for 12 min, during which period the bestriding time and mating frequency of the male mice were observed.
# All of the values were expressed by using mean value and standard error (M±SEM), the analytic method used was one-way analysis of variance (ANOVA), and the statistic results were expressed by double star method, i.e., *<0.05, **<0.01.
# [2] = test system: sperms in tail of epididymis; assay: Gossypol aspermatogenesis model: quality of sperms from tail of epididymis by CASA; format: in vivo,  male mice; conditions: 14th day
# [3] = target: PDE5 (Homo sapiens, UniProt O76074); assay: Inhibition effect on PDE5 (cGMP degradation, radioimmune autograph technique); format: biochemical; conditions: read-out: Inhibition rate on PDE5
# [4] = 5 mg/kg, 1st day, 12 min observation
# [5] = 10 mg/kg, 1st day, 12 min observation
# [6] = 5 mg/kg every day + gossypol 50 mg/kg every other day
# [7] = 10 mg/kg every day + gossypol 50 mg/kg every other day
smiles,measurement,setting,value
"CC(C)=CCC[C@](C)(O)[C@H]1CC[C@]2(C)[C@@H]1[C@H](O)C[C@@H]1[C@@]3(C)CC[C@H](O)C(C)(C)[C@@H]3[C@@H](O[C@@H]3O[C@H](CO)[C@@H](O)[C@H](O)[C@H]3O)C[C@]12C [Rh1, ginsenoside Rh1]",bestriding time of mice,"[1]; 5 mg/kg, 1st day",2.8 ± 3.2 min
same,mating frequency of mice,[1]; [4],11.3 ± 4.9
same,bestriding time of mice,"[1]; 5 mg/kg, 4th day",3.5 ± 4.1 min
same,mating frequency of mice,"[1]; 5 mg/kg, 4th day",13.9 ± 3.3
same,bestriding time of mice,"[1]; 5 mg/kg, 8th day",4.1 ± 3.5 min
same,mating frequency of mice,"[1]; 5 mg/kg, 8th day",23.5 ± 5.7
same,bestriding time of mice,"[1]; 5 mg/kg, 12th day",6.2 ± 2.9 min
same,mating frequency of mice,"[1]; 5 mg/kg, 12th day",29.4 ± 4.8
same,bestriding time of mice,"[1]; 5 mg/kg, 14th day",8.6 ± 5.2 min
same,mating frequency of mice,"[1]; 5 mg/kg, 14th day",33.6 ± 6.1
same,bestriding time of mice,"[1]; 5 mg/kg, 16th day",8.7 ± 4.2* min
same,mating frequency of mice,"[1]; 5 mg/kg, 16th day",32.2 ± 5.3
same,bestriding time of mice,"[1]; 5 mg/kg, 18th day",8.9 ± 3.3* min
same,mating frequency of mice,"[1]; 5 mg/kg, 18th day",39.8 ± 9.3*
same,bestriding time of mice,"[1]; 5 mg/kg, 20th day",9.2 ± 3.4* min
same,mating frequency of mice,"[1]; 5 mg/kg, 20th day",38.1 ± 8.5*
same,bestriding time of mice,"[1]; 10 mg/kg, 1st day",3.6 ± 2.7 min
same,mating frequency of mice,[1]; [5],9.7 ± 5.6
same,bestriding time of mice,"[1]; 10 mg/kg, 4th day",3.9 ± 3.8 min
same,mating frequency of mice,"[1]; 10 mg/kg, 4th day",14.3 ± 9.5
same,bestriding time of mice,"[1]; 10 mg/kg, 8th day",4.0 ± 3.5 min
same,mating frequency of mice,"[1]; 10 mg/kg, 8th day",25.7 ± 8.6
same,bestriding time of mice,"[1]; 10 mg/kg, 12th day",6.3 ± 2.6 min
same,mating frequency of mice,"[1]; 10 mg/kg, 12th day",28.4 ± 10.5
same,bestriding time of mice,"[1]; 10 mg/kg, 14th day",8.4 ± 3.1 min
same,mating frequency of mice,"[1]; 10 mg/kg, 14th day",32.2 ± 9.3
same,bestriding time of mice,"[1]; 10 mg/kg, 16th day",8.9 ± 3.7* min
same,mating frequency of mice,"[1]; 10 mg/kg, 16th day",34.1 ± 8.2
same,bestriding time of mice,"[1]; 10 mg/kg, 18th day",9.1 ± 3.8* min
same,mating frequency of mice,"[1]; 10 mg/kg, 18th day",36.4 ± 6.7*
same,bestriding time of mice,"[1]; 10 mg/kg, 20th day",9.3 ± 3.8* min
same,mating frequency of mice,"[1]; 10 mg/kg, 20th day",43.4 ± 7.3*
same,Number of sperms,[2]; [6],142 ± 24** 10^6 · ml−1
same,Motility of sperms (A + B),[2]; 5 mg/kg every day + gossypol,39 ± 8 %
same,Viability rate of sperms,[2]; 5 mg/kg every day + gossypol,56 ± 10 %
same,Number of sperms,[2]; [7],143 ± 16** 10^6 · ml−1
same,Motility of sperms (A + B),[2]; 10 mg/kg every day + gossypol,39 ± 6 %
same,Viability rate of sperms,[2]; 10 mg/kg every day + gossypol,52 ± 5 %
"CCCc1nn(C)c2c(=O)[nH]c(-c3cc(S(=O)(=O)N4CCN(C)CC4)ccc3OCC)nc12 [Sildenafil, reference compound]",inhibition at 0.0025 µM,[3],71.6%
same,inhibition at 0.005 µM,[3],14.6%
same,inhibition at 0.01 µM,[3],52.6%
same,inhibition at 0.02 µM,[3],83.3%
same,inhibition at 0.04 µM,[3],100%
CC(C)=CCC[C@](C)(O)[C@H]1CC[C@]2(C)[C@@H]1[C@H](O)C[C@@H]1[C@@]3(C)CC[C@H](O)C(C)(C)[C@@H]3[C@@H](O)C[C@]12C [Ppt],bestriding time of mice,"[1]; 5 mg/kg, 1st day",3.3 ± 2.3 min
same,mating frequency of mice,[1]; [4],11.4 ± 6.8
same,bestriding time of mice,"[1]; 5 mg/kg, 4th day",3.9 ± 4.2 min
same,mating frequency of mice,"[1]; 5 mg/kg, 4th day",15.4 ± 8.2
same,bestriding time of mice,"[1]; 5 mg/kg, 8th day",4.5 ± 3.8 min
same,mating frequency of mice,"[1]; 5 mg/kg, 8th day",27.4 ± 8.7
same,bestriding time of mice,"[1]; 5 mg/kg, 12th day",6.8 ± 3.3 min
same,mating frequency of mice,"[1]; 5 mg/kg, 12th day",28.2 ± 9.3
same,bestriding time of mice,"[1]; 5 mg/kg, 14th day",7.9 ± 4.4 min
same,mating frequency of mice,"[1]; 5 mg/kg, 14th day",29.5 ± 7.7
same,bestriding time of mice,"[1]; 5 mg/kg, 16th day",8.3 ± 3.1* min
same,mating frequency of mice,"[1]; 5 mg/kg, 16th day",33.5 ± 10.4
same,bestriding time of mice,"[1]; 5 mg/kg, 18th day",9.2 ± 3.8* min
same,mating frequency of mice,"[1]; 5 mg/kg, 18th day",39.2 ± 8.6*
same,bestriding time of mice,"[1]; 5 mg/kg, 20th day",9.1 ± 3.5* min
same,mating frequency of mice,"[1]; 5 mg/kg, 20th day",41.7 ± 7.4*
same,bestriding time of mice,"[1]; 10 mg/kg, 1st day",2.9 ± 3.4 min
same,mating frequency of mice,[1]; [5],13.4 ± 6.3
same,bestriding time of mice,"[1]; 10 mg/kg, 4th day",3.3 ± 4.1 min
same,mating frequency of mice,"[1]; 10 mg/kg, 4th day",15.4 ± 8.4
same,bestriding time of mice,"[1]; 10 mg/kg, 8th day",5.1 ± 3.8 min
same,mating frequency of mice,"[1]; 10 mg/kg, 8th day",22.8 ± 9.6
same,bestriding time of mice,"[1]; 10 mg/kg, 12th day",7.2 ± 3.3 min
same,mating frequency of mice,"[1]; 10 mg/kg, 12th day",31.6 ± 8.4
same,bestriding time of mice,"[1]; 10 mg/kg, 14th day",8.4 ± 4.2 min
same,mating frequency of mice,"[1]; 10 mg/kg, 14th day",33.7 ± 8.5
same,bestriding time of mice,"[1]; 10 mg/kg, 16th day",9.4 ± 3.9* min
same,mating frequency of mice,"[1]; 10 mg/kg, 16th day",35.3 ± 9.3
same,bestriding time of mice,"[1]; 10 mg/kg, 18th day",9.4 ± 3.9* min
same,mating frequency of mice,"[1]; 10 mg/kg, 18th day",37.2 ± 8.3*
same,bestriding time of mice,"[1]; 10 mg/kg, 20th day",9.4 ± 3.1* min
same,mating frequency of mice,"[1]; 10 mg/kg, 20th day",40.2 ± 7.3*
same,Number of sperms,[2]; [6],141 ± 18** 10^6 · ml−1
same,Motility of sperms (A + B),[2]; 5 mg/kg every day + gossypol,38 ± 11 %
same,Viability rate of sperms,[2]; 5 mg/kg every day + gossypol,55 ± 9 %
same,Number of sperms,[2]; [7],178 ± 54** 10^6 · ml−1
same,Motility of sperms (A + B),[2]; 10 mg/kg every day + gossypol,39 ± 9 %
same,Viability rate of sperms,[2]; 10 mg/kg every day + gossypol,56 ± 7 %

# Reference: patent publication US8765695B2, “Use of ginsenoside RG1, its metabolites ginsenoside RH1 and/or PPT” (priority 2007, dated 2014)
